In this assay the target is T1, ΔF508-CFTR (Homo sapiens, UniProt P13569, DEL508-508).
T1 construct: Primary lung epithelial cells homozygous for the Cystic Fibrosis-causing ΔF508 mutation were differentiated for a minimum of 4 weeks; endogenous in cells; host or cells: primary human bronchial (lung) epithelial cells (hBE) homozygous for ΔF508, differentiated at an air-liquid interface
In words: hBE Equivalent Current (Ieq) Assay. It counts as cell-based. The following applies: compound at 10 uM and VX-809 at 1 uM, activity as % of VX-809 (1 uM); AUC of equivalent chloride current; primary lung epithelial cells homozygous for ΔF508, 24 h treatment. As for the experimental part: Primary lung epithelial cells homozygous for the Cystic Fibrosis-causing ΔF508 mutation were differentiated for a minimum of 4 weeks in an air-liquid interface on Costar 24 well HTS filter plates prior to the equivalent current (Ieq) measurements. Cells were apically mucus-washed for 30 minutes 24 h prior to treatment with compounds. The basolateral media was removed and replaced with media containing the compound of interest diluted to its final concentration from DMSO stocks. Treated cells were incubated at 37° C. and 5% CO2 for 24 hours. At the end of the treatment period, the media was changed to the Ieq experimental solution for 30 minutes before the experiment and plates are maintained in a CO2-free incubator during this period. The plates containing the cells were then placed in pre-warmed heating blocks at 36° C.±0.5 for 15 minutes before measurements are taken. The transepithelial voltage (VT) and conductance (GT) were measured using a custom 24 channel current clamp (TECC-24) with 24 well electrode manifold. The Ieq assay measurements were made following additions with standardized time periods: • 1. The baseline VT and GT values were measured for approximately 20 minutes. • 2. Benzamil was added to block ENaC for 15 minutes. • 3. Forskolin plus VX-770 were added to maximally activate ΔF508-CFTR for 27 minutes. • 4. Bumetanide was added to inhibit the NaK2Cl cotransporter and shut-off secretion of chloride.
The activity data captured was the area under the curve (AUC) for the traces of the equivalent chloride current. The AUC was collected from the time of the forskolin/VX-770 addition until the inhibition by bumetanide addition. Correction in response to compound treatment was scored as the increase in the AUC for compound-treated samples over that of vehicle-treated samples.
The results are shown below in Table 2. ++ indicates activity ≥25% run at 10 uM of VX-809 at 1 uM, + indicates activity 10 to <25% run at 10 uM of VX-809 at 1 uM, **indicates activity ≥200% of VX-809 (1 uM) with compound at 10 uM and VX-809 at 1 uM; * indicates activity 100-200% of VX-809 (1 uM) with compound at 10 uM and VX-809 at 1 uM. ^## indicates activity ≥200% of VX-809 (3 uM) with compound at 10 uM and VX-809 at 3 uM; ^# indicates activity 100-200% of VX-809 (3 uM) with compound at 10 uM and VX-809 at 3 uM.

SMILES strings stand for the structures. Counter-ions that a name gives are not always drawn.

T1 sequence (P13569 with tags, fused parts or gaps DEL508-508): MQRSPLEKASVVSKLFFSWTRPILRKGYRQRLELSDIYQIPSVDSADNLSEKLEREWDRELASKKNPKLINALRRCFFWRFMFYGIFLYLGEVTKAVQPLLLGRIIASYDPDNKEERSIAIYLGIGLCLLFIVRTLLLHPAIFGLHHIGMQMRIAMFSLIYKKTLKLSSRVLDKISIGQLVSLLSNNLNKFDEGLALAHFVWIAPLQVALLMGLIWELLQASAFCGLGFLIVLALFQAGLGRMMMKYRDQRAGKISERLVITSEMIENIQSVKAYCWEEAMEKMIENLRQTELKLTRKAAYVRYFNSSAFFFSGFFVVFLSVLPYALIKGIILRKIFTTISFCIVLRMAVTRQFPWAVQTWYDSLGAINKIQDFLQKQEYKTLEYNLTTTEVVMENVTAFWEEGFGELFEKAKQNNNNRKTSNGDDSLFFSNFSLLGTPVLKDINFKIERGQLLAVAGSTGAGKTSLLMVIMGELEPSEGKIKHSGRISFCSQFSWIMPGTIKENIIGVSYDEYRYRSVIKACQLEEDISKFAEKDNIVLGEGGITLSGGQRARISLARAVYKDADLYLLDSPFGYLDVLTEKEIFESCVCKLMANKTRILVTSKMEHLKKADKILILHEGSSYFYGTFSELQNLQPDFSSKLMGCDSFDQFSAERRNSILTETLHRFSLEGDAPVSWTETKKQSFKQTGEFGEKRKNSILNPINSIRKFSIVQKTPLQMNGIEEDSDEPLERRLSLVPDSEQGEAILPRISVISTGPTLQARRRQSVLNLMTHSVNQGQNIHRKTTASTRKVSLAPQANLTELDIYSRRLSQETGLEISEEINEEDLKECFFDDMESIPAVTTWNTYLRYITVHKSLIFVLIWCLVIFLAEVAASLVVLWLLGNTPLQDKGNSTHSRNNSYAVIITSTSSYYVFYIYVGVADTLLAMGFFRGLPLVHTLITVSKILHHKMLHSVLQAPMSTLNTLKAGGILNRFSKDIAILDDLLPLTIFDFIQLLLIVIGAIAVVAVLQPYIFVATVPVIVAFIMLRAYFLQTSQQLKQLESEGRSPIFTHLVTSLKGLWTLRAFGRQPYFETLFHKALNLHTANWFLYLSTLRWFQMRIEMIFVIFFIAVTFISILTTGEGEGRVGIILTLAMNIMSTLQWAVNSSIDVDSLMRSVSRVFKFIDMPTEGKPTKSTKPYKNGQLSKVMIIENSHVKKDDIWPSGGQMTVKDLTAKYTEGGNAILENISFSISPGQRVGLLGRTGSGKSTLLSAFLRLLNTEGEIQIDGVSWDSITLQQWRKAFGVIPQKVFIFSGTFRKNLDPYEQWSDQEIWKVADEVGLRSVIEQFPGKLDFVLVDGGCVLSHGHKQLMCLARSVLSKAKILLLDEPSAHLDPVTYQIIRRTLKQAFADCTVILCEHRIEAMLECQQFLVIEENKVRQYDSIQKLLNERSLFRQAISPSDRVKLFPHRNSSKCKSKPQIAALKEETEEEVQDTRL

As for `CN1CC(c2nnc([C@H]3C[C@H](NC(=O)c4cc(-c5ccccc5)no4)C3)o2)C1` [Example 21, N-(trans-3-(5-(1-methylazetidin-3-yl)-1,3,4-oxadiazol-2-yl)cyclobutyl)-3-phenylisoxazole-5-carboxamide trifluoroacetate], the Ieq entry was “* (* indicates activity 100-200% of VX-809 (1 uM) with compound at 10 uM and VX-809 at 1 uM)”.

Turning to `O=C(NC1CC(c2nnc(C3COC3)o2)C1)c1cc(-c2ccccc2)no1` (stereo not drawn) [Example 22, N-trans-3-(5-(oxetan-3-yl)-1,3,4-oxadiazol-2-yl)cyclobutyl)-3-phenylisoxazole-5-carboxamide], the Ieq result is “* (* indicates activity 100-200% of VX-809 (1 uM) with compound at 10 uM and VX-809 at 1 uM)”.

Turning to `O=C(N[C@H]1C[C@H](c2nnc(C3CS(=O)(=O)C3)o2)C1)c1cc(-c2ccccc2)no1` [Example 23, N-(trans-3-(5-(1,1-dioxidothietan-3-yl)-1,3,4-oxadiazol-2-yl)cyclobutyl)-3-phenylisoxazole-5-carboxamide], the Ieq result is “* (* indicates activity 100-200% of VX-809 (1 uM) with compound at 10 uM and VX-809 at 1 uM)”. Next, `CN1CCC(N2CC(c3nnc(C4CC(NC(=O)c5cc(-c6ccccc6)no5)C4)o3)C2)CC1` (stereo not drawn) [Example 24, N-cis-(3-(5-(1-(1-methylpiperidin-4-yl)azetidin-3-yl)-1,3,4-oxadiazol-2-yl)cyclobutyl)-3-phenylisoxazole-5-carboxamide]: “* (* indicates activity 100-200% of VX-809 (1 uM) with compound at 10 uM and VX-809 at 1 uM)”; `O=C(N[C@H]1C[C@H](c2nnc(C3CN(CC4CCC4)C3)o2)C1)c1cc(-c2ccccc2)no1` [Example 27, N-(trans-3-(5-(1-(cyclobutylmethyl)azetidin-3-yl)-1,3,4-oxadiazol-2-yl)cyclobutyl)-3-phenylisoxazole-5-carboxamide]: “* (* indicates activity 100-200% of VX-809 (1 uM) with compound at 10 uM and VX-809 at 1 uM)”. For `O=C(N[C@H]1C[C@@H](n2nncc2CO)C1)c1cc(-c2ccccc2)no1` [Example 28, N-(cis-3-(5-(hydroxymethyl)-1H-1,2,3-triazol-1-yl)cyclobutyl)-3-phenylisoxazole-5-carboxamide], the Ieq result is “** (**indicates activity ≥200% of VX-809 (1 uM) with compound at 10 uM and VX-809 at 1 uM)”. Next, `O=C(N[C@H]1C[C@@H](n2cc(CO)nn2)C1)c1cc(-c2ccccc2)no1` [Example 29, N-(cis-3-(4-(hydroxymethyl)-1H-1,2,3-triazol-1-yl)cyclobutyl)-3-phenylisoxazole-5-carboxamide]: “** (**indicates activity ≥200% of VX-809 (1 uM) with compound at 10 uM and VX-809 at 1 uM)”; `C[C@@H](O)c1nnc([C@H]2C[C@H](NC(=O)c3cc(-c4ccc(F)cc4)no3)C2)o1` [Example 36, 3-(4-fluorophenyl)-N-(trans-3-(5-((R)-1-hydroxyethyl)-1,3,4-oxadiazol-2-yl)cyclobutyl)isoxazole-5-carboxamide]: “* (* indicates activity 100-200% of VX-809 (1 uM) with compound at 10 uM and VX-809 at 1 uM)”.

As for `C[C@@H](O)c1nnc(CC2CC(NC(=O)c3cc(-c4ccccc4)no3)C2)o1` (stereo partly drawn) [Example 37, N-((1S,3s)-3-((5-((R)-1-hydroxyethyl)-1,3,4-oxadiazol-2-yl)methyl)cyclobutyl)-3-phenylisoxazole-5-carboxamide], the Ieq result was “** (**indicates activity ≥200% of VX-809 (1 uM) with compound at 10 uM and VX-809 at 1 uM)”.

With `C[C@@H](O)c1nnc(CC2CC(NC(=O)c3cc(-c4ccc(F)cc4)no3)C2)o1` (stereo partly drawn) [Example 40, 3-(4-Fluorophenyl)-N-[(1r,3r)-3-([5-[(1R)-1-hydroxyethyl]-1,3,4-oxadiazol-2-yl]methyl)cyclobutyl]-1,2-oxazole-5-carboxamide], the Ieq result is “** (**indicates activity ≥200% of VX-809 (1 uM) with compound at 10 uM and VX-809 at 1 uM)”. For `C[C@@H](O)c1nnc(C[C@H]2C[C@@H](NC(=O)c3cc(-c4ccccc4)no3)C2)s1` [Example 41, 3-Phenyl-N-[(1s,3s)-3-([5-[(1R)-1-hydroxyethyl]-1,3,4-thiadiazol-2-yl]methyl)cyclobutyl]-1,2-oxazole-5-carboxamide], the Ieq entry was “** (**indicates activity ≥200% of VX-809 (1 uM) with compound at 10 uM and VX-809 at 1 uM)”. The same measure for `C[C@@H](O)c1nnc(CC2CC(NC(=O)c3cc(-c4ccccc4)no3)C2)s1` (stereo partly drawn) [Example 42, 3-Phenyl-N-[(1r,3r)-3-([5-[(1R)-1-hydroxyethyl]-1,3,4-thiadiazol-2-yl]methyl)cyclobutyl]-1,2-oxazole-5-carboxamide]: “* (* indicates activity 100-200% of VX-809 (1 uM) with compound at 10 uM and VX-809 at 1 uM)”; for `C[C@@H](O)c1nnc(C[C@H]2C[C@@H](NC(=O)c3cc(-c4ccc(F)cc4)no3)C2)s1` [Example 43, 3-(4-Fluorophenyl)-N-[(1s,3s)-3-([5-[(1R)-1-hydroxyethyl]-1,3,4-thiadiazol-2-yl]methyl)cyclobutyl]-1,2-oxazole-5-carboxamide]: “** (**indicates activity ≥200% of VX-809 (1 uM) with compound at 10 uM and VX-809 at 1 uM)”; for `C[C@@H](O)c1nnc(C[C@H]2C[C@H](NC(=O)c3cc(-c4ccc(F)cc4)no3)C2)s1` [Example 44, 3-(4-Fluorophenyl)-N-[(1r,3r)-3-([5-[(1R)-1-hydroxyethyl]-1,3,4-thiadiazol-2-yl]methyl)cyclobutyl]-1,2-oxazole-5-carboxamide]: “** (**indicates activity ≥200% of VX-809 (1 uM) with compound at 10 uM and VX-809 at 1 uM)”. As to `C[C@@H](O)c1nnc(C[C@H]2C[C@@H](NC(=O)c3cc(-c4cccs4)no3)C2)o1` [Example 45, N-[(1s,3s)-3-([5-[(1R)-1-Hydroxyethyl]-1,3,4-oxadiazol-2-yl]methyl)cyclobutyl]-3-(thiophen-2-yl)-1,2-oxazole-5-carboxamide], the Ieq entry is “* (* indicates activity 100-200% of VX-809 (1 uM) with compound at 10 uM and VX-809 at 1 uM)”.

As for `C[C@@H](O)c1nnc(C[C@H]2C[C@H](NC(=O)c3cc(-c4cccs4)no3)C2)o1` [Example 46, N-[(1r,3r)-3-([5-[(1R)-1-Hydroxyethyl]-1,3,4-oxadiazol-2-yl]methyl)cyclobutyl]-3-(thiophen-2-yl)-1,2-oxazole-5-carboxamide], the Ieq entry was “* (* indicates activity 100-200% of VX-809 (1 uM) with compound at 10 uM and VX-809 at 1 uM)”.

With `C[C@@H](O)c1nnc([C@H]2C[C@H](NC(=O)c3onc(-c4ccccc4)c3F)C2)o1` [Example 50, 4-Fluoro-3-phenyl-N-[(1r,3r)-3-[5-[(1R)-1-hydroxyethyl]-1,3,4-oxadiazol-2-yl]cyclobutyl]-1,2-oxazole-5-carboxamide], the Ieq entry is “* (* indicates activity 100-200% of VX-809 (1 uM) with compound at 10 uM and VX-809 at 1 uM)”. The same measure for `C[C@H](O)c1cnnn1C[C@H]1C[C@@H](NC(=O)c2cc(-c3ccccc3)no2)C1` [Example 57, 3-Phenyl-N-[(1s,3s)-3-([5-[(1S)-1-hydroxyethyl]-1H-1,2,3-triazol-1-yl]methyl)cyclobutyl]-1,2-oxazole-5-carboxamide]: “** (**indicates activity ≥200% of VX-809 (1 uM) with compound at 10 uM and VX-809 at 1 uM)”; for `C[C@H](O)c1cn(C[C@H]2C[C@@H](NC(=O)c3cc(-c4ccccc4)no3)C2)nn1` [Example 58, 3-Phenyl-N-[(1s,3s)-3-([4-[(1S)-1-hydroxyethyl]-1H-1,2,3-triazol-1-yl]methyl)cyclobutyl]-1,2-oxazole-5-carboxamide]: “* (* indicates activity 100-200% of VX-809 (1 uM) with compound at 10 uM and VX-809 at 1 uM)”.

The values above are taken from patent publication US11098035B2, “Compounds, compositions, and methods for increasing CFTR activity” (Proteostasis Therapeutics, Inc., priority 2014, dated 2021).
